The structures appear in SMILES notation. Where only a bound is given, the exact number is not on record here.

Usually IC50 stands for the concentration that gives 50% inhibition.

For one experiment, the system named is HCC461. Kind of experiment: cell viability assay in HCC461, compound alone. The experiment is classed as cell-based. Particulars: HCC461, HCC461; Tables 6-9; read-out: IC50 (μM) in cell viability assay in HCC461.
Take `CN[C@@H](C)C(=O)N[C@H](C(=O)N[C@@H](CCCCNC(=O)c1cccc(C(=O)N[C@H]2CC(C(=O)N[C@H](C)c3ccccc3)N(C(=O)[C@@H](NC(=O)[C@H](C)NC)C(C)(C)C)C2)c1)C(=O)N[C@@H](C)C(C)C)C(C)C` (stereo partly drawn) [Compound 162]: the 50% inhibitory concentration (IC50) is greater than 30 µM.

Turning to `CN[C@@H](C)C(=O)N[C@@H](CCC(=O)O)C(=O)N1C[C@@H](NC(=O)c2cccc(C(=O)N[C@H]3C[C@@H](C(=O)N[C@@H]4CCCc5ccccc54)N(C(=O)[C@@H](NC(=O)[C@H](C)NC)C(C)(C)C)C3)c2)CC1C(=O)N[C@H](C)c1ccccc1` (stereo partly drawn) [Compound 147], the IC50 is 0.185 µM.

In the case of `CN[C@@H](C)C(=O)N[C@@H](CCC(=O)OC)C(=O)N1C[C@@H](NC(=O)c2cccc(C(=O)N[C@H]3C[C@@H](C(=O)N[C@@H]4CCCc5ccccc54)N(C(=O)[C@@H](NC(=O)[C@H](C)NC)C(C)(C)C)C3)c2)CC1C(=O)N[C@H](C)c1ccccc1` (stereo partly drawn) [Compound 149], the IC50 turned out to be 0.072 µM.

Still in this experiment, the particulars now being: HCC461, HCC461; Tables 15-18; read-out: IC50 (uM) in cell viability assay in HCC461.
Take `CN[C@@H](C)C(=O)N[C@@H](CCCCNC(=O)c1cccc(C(=O)NCCCC[C@H](NC(=O)[C@H](C)NC)C(=O)N2CCC[C@H]2C(=O)NC(c2ccccc2)c2ccccc2)c1)C(=O)N1CCC[C@H]1C(=O)NC(c1ccccc1)c1ccccc1` [Compound P2-29]: the IC50 is 0.324 µM.

Take `CN[C@@H](C)C(=O)N[C@H](C(=O)N1CCC[C@H]1C(=O)N[C@H](CNC(=O)c1cc(N)cc(C(=O)NC[C@@H](NC(=O)[C@@H]2CCCN2C(=O)[C@@H](NC(=O)[C@H](C)NC)C(C)(C)C)C2CCCCC2)c1)C1CCCCC1)C(C)(C)C` [Compound P4-9]: the half-inhibitory concentration (IC50) was 0.53 µM.

Consider `CN[C@@H](C)C(=O)N[C@H](C(=O)N1CCC[C@H]1C(=O)N[C@H](CNC(=O)[C@H]1CC[C@@](C)(C(=O)NC[C@@H](NC(=O)[C@@H]2CCCN2C(=O)[C@@H](NC(=O)[C@H](C)NC)C(C)(C)C)c2ccccc2)C1(C)C)c1ccccc1)C(C)(C)C` [Compound P4-15], for which the half-maximal inhibitory concentration (IC50) was determined as 0.085 µM.

`C#CC[C@H](NC(=O)[C@H](C)NC)C(=O)N1C[C@@H](n2cc(C[C@H](NC(=O)[C@H](C)NC)C(=O)N3C[C@@H](N=[N+]=[N-])C[C@H]3C(=O)N[C@@H]3CCCc4ccccc43)nn2)C[C@H]1C(=O)N[C@@H]1CCCc2ccccc21` [Compound H-2]: the IC50 came to 0.114 µM.

On to `CN[C@@H](C)C(=O)N[C@@H](CCNC(=O)c1cccc(C(=O)NCC[C@H](NC(=O)[C@H](C)NC)C(=O)N2CCC[C@H]2C(=O)N[C@@H]2CCCc3ccccc32)c1)C(=O)N1CCC[C@H]1C(=O)N[C@@H]1CCCc2ccccc21` [Compound P2-26], for which the 50% inhibitory concentration (IC50) stood at 0.08 µM.

Regarding `CN[C@@H](C)C(=O)N[C@@H](CCCCCC[C@H](NC(=O)[C@H](C)NC)C(=O)N1CCC[C@H]1C(=O)NC1CCCC2CCCCC21)C(=O)N1CCC[C@H]1C(=O)NC1CCCC2CCCCC21` (stereo partly drawn) [Compound P2-23], the IC50 was 0.055 µM.

Consider `CN[C@@H](C)C(=O)N[C@@H](CCCCCC[C@H](NC(=O)[C@H](C)NC)C(=O)N1CCC[C@H]1C(=O)NCc1ccc(F)cc1)C(=O)N1CCC[C@H]1C(=O)NCc1ccc(F)cc1` [Compound P2-7], for which the concentration for half-maximal inhibition (IC50) stood at 0.17 µM.

As for `CN[C@@H](C)C(=O)N[C@H](C(=O)N1CCC[C@H]1C(=O)NC1c2ccccc2-c2ccccc21)[C@@H](C)OCCCCCCO[C@H](C)[C@H](NC(=O)[C@H](C)NC)C(=O)N1CCC[C@H]1C(=O)NC1c2ccccc2-c2ccccc21` [Compound P2-16], the IC50 came to 0.03 µM.

The same experiment, now with this note: HCC461, HCC461 cells, compound alone; read-out: IC50 (uM) in cell viability assay in HCC461.
On to `CN[C@@H](C)C(=O)N[C@H](C(=O)N1C[C@@H](NC(=O)c2nc[nH]c2C(=O)N[C@H]2C[C@@H](C(=O)N[C@@H]3CCCc4ccccc43)N(C(=O)[C@@H](NC(=O)[C@H](C)NC)C(C)(C)C)C2)C[C@H]1C(=O)N[C@@H]1CCCc2ccccc21)C(C)(C)C` [Compound P3-36], for which the concentration for half-maximal inhibition (IC50) was 2.38 µM.

In the case of `CN[C@@H](C)C(=O)N[C@H](C(=O)N1C[C@@H](NC(=O)c2cnc(C(=O)N[C@H]3C[C@@H](C(=O)N[C@@H]4CCCc5ccccc54)N(C(=O)[C@@H](NC(=O)[C@H](C)NC)C(C)(C)C)C3)cn2)C[C@H]1C(=O)N[C@@H]1CCCc2ccccc21)C(C)(C)C` [Compound P3-13], the IC50 turned out to be 0.028 µM.

In the case of `CN[C@@H](C)C(=O)N[C@H](C(=O)N1C[C@@H](NC(=O)c2cc(N)cc(C(=O)N[C@H]3C[C@@H](C(=O)NC4c5ccccc5-c5ccccc54)N(C(=O)[C@@H](NC(=O)[C@H](C)NC)C(C)(C)C)C3)c2)C[C@H]1C(=O)NC1c2ccccc2-c2ccccc21)C(C)(C)C` [Compound P3-61], the IC50 was 0.02 µM.

For `CN[C@@H](C)C(=O)N[C@H](C(=O)N1C[C@@H](NC(=O)c2cc(N)cc(C(=O)N[C@H]3C[C@@H](C(=O)N[C@@H]4CCCc5ccccc54)N(C(=O)[C@@H](NC(=O)[C@H](C)NC)C4CCCCC4)C3)c2)C[C@H]1C(=O)N[C@@H]1CCCc2ccccc21)C1CCCCC1` [Compound P3-54], the IC50 stood at 0.051 µM.

Consider `CN[C@@H](C)C(=O)N[C@H](C(=O)N1C[C@@H](NC(=O)c2cccc(C(=O)N[C@H]3C[C@@H](C(=O)Nc4cccc5c4CCCC5)N(C(=O)[C@@H](NC(=O)[C@H](C)NC)C(C)(C)C)C3)c2)C[C@H]1C(=O)Nc1cccc2c1CCCC2)C(C)(C)C` [Compound P3-45], for which the IC50 came out at 0.181 µM.

Regarding `CN[C@@H](C)C(=O)N[C@H](C(=O)N1C[C@@H](NC(=O)C(O)CC(=O)N[C@H]2C[C@@H](C(=O)NC3CCCc4ccccc43)N(C(=O)[C@@H](NC(=O)[C@H](C)NC)C(C)(C)C)C2)CC1C(=O)N[C@@H]1CCCc2ccccc21)C(C)(C)C` (stereo partly drawn) [Compound P3-84], the IC50 turned out to be 0.1 µM.

Consider `CN[C@@H](C)C(=O)N[C@H](C(=O)N1C[C@@H](NC(=O)C[C@H](NC(C)=O)C(=O)N[C@H]2C[C@@H](C(=O)N[C@@H]3CCCc4ccccc43)N(C(=O)[C@@H](NC(=O)[C@H](C)NC)C(C)(C)C)C2)C[C@H]1C(=O)N[C@@H]1CCCc2ccccc21)C(C)(C)C` [Compound P3-67], for which the concentration for half-maximal inhibition (IC50) was determined as 0.214 µM.

Take `CN[C@@H](C)C(=O)N[C@H](C(=O)N1C[C@@H](NC(=O)c2cccc(C(=O)N[C@H]3C[C@@H](C(=O)N[C@@H]4CCCc5ccccc54)N(C(=O)[C@@H](NC(=O)[C@H](C)NC)C(C)(C)C)C3)n2)C[C@H]1C(=O)N[C@@H]1CCCc2ccccc21)C(C)(C)C` [Compound P3-10]: the IC50 amounted to 0.046 µM.

On to `CN[C@@H](CO)C(=O)N[C@H](C(=O)N1C[C@@H](NC(=O)c2cccc(C(=O)N[C@H]3C[C@@H](C(=O)N[C@@H]4CCCc5ccccc54)N(C(=O)[C@@H](NC(=O)[C@H](CO)NC)C(C)(C)C)C3)c2)C[C@H]1C(=O)N[C@@H]1CCCc2ccccc21)C(C)(C)C` [Compound P3-86], for which the concentration for half-maximal inhibition (IC50) is 0.077 µM.

Take `CN[C@@H](C)C(=O)N[C@H](C(=O)N1C[C@@H](NC(=O)/C=C/C(=O)N[C@H]2C[C@@H](C(=O)N[C@H](C)c3ccccc3)N(C(=O)[C@@H](NC(=O)[C@H](C)NC)C(C)(C)C)C2)C[C@H]1C(=O)N[C@H](C)c1ccccc1)C(C)(C)C` [Compound P3-75]: the IC50 was 0.057 µM.

Regarding `CN[C@@H](C)C(=O)N[C@H](C(=O)N1C[C@@H](n2cc(-c3cccc(-c4cn([C@H]5C[C@@H](C(=O)N[C@H](C)c6ccccc6)N(C(=O)[C@@H](NC(=O)[C@H](C)NC)C(C)(C)C)C5)nn4)c3)nn2)C[C@H]1C(=O)N[C@H](C)c1ccccc1)C(C)(C)C` [Compound P3-88], the IC50 came to 0.033 µM.

On to `CN[C@@H](C)C(=O)N[C@H](C(=O)N1C[C@@H](NC(=O)CCC(=O)N[C@H]2C[C@@H](C(=O)NC3CCCc4ccccc43)N(C(=O)[C@@H](NC(=O)[C@H](C)NC)C(C)(C)C)C2)C[C@H]1C(=O)NC1CCCc2ccccc21)C(C)(C)C` (stereo partly drawn) [Compound P3-1], for which the concentration for half-maximal inhibition (IC50) came out at 0.022 µM.

Consider `CN[C@@H](C)C(=O)N[C@H](C(=O)N1C[C@@H](NC(=O)c2ccc(-c3ccc(C(=O)N[C@H]4C[C@@H](C(=O)N[C@@H]5CCCc6ccccc65)N(C(=O)[C@@H](NC(=O)[C@H](C)NC)C(C)(C)C)C4)cc3)cc2)C[C@H]1C(=O)N[C@@H]1CCCc2ccccc21)C(C)(C)C` [Compound P3-37], for which the half-maximal inhibitory concentration (IC50) was found to be 0.008 µM.

For `CN[C@@H](C)C(=O)N[C@H](C(=O)N1C[C@@H](NC(=O)c2cc(N)cc(C(=O)N[C@H]3C[C@@H](C(=O)N[C@@H]4CCCc5ccccc54)N(C(=O)[C@@H](NC(=O)[C@H](C)NC)C(C)C)C3)c2)C[C@H]1C(=O)N[C@@H]1CCCc2ccccc21)C(C)C` [Compound P3-56], the IC50 is 0.091 µM.

As to `CN[C@@H](C)C(=O)N[C@H](C(=O)N1C[C@@H](NC(=O)c2cc(C(=O)N[C@H]3C[C@@H](C(=O)N[C@@H]4CCCc5ccccc54)N(C(=O)[C@@H](NC(=O)[C@H](C)NC)C(C)(C)C)C3)cc(N(S(C)(=O)=O)S(C)(=O)=O)c2)C[C@H]1C(=O)N[C@@H]1CCCc2ccccc21)C(C)(C)C` [Compound P3-41], the IC50 was determined as 0.016 µM.

On to `C#CC[C@H](NC(=O)[C@H](C)NC)C(=O)N1C[C@@H](NC(=O)c2cnc(C(=O)N[C@H]3C[C@@H](C(=O)N[C@@H]4CCCc5ccccc54)N(C(=O)[C@H](CC#C)NC(=O)[C@H](C)NC)C3)cn2)C[C@H]1C(=O)N[C@@H]1CCCc2ccccc21` [Compound P3-14], for which the IC50 was determined as 0.023 µM.

`CN[C@@H](C)C(=O)N[C@H](C(=O)N1C[C@@H](NC(=O)c2cc(C(=O)N[C@H]3C[C@@H](C(=O)NC(c4ccccc4)c4ccccc4)N(C(=O)[C@@H](NC(=O)[C@H](C)NC)C(C)(C)C)C3)[nH]n2)C[C@H]1C(=O)NC(c1ccccc1)c1ccccc1)C(C)(C)C` [Compound P3-64]: the IC50 amounted to 0.008 µM.

As to `CN[C@@H](C)C(=O)N[C@H](C(=O)N1C[C@@H](NC(=O)C/C=C/CC(=O)N[C@H]2C[C@@H](C(=O)N[C@@H]3CCCc4ccccc43)N(C(=O)[C@@H](NC(=O)[C@H](C)NC)C(C)(C)C)C2)C[C@H]1C(=O)N[C@@H]1CCCc2ccccc21)C(C)(C)C` [Compound P3-32], the IC50 was determined as 0.006 µM.

Staying with this experiment, now noted: HCC461 cells, compound alone; read-out: IC50 (uM) in cell viability assay in HCC461.
For the compound `CN[C@@H](C)C(=O)N[C@H](C(=O)N1C[C@@H](NC(=O)C2CCCC(C(=O)N[C@H]3C[C@@H](C(=O)N[C@H](C)C4CCCCC4)N(C(=O)[C@@H](NC(=O)[C@H](C)NC)C(C)(C)C)C3)C2)C[C@H]1C(=O)N[C@H](C)C1CCCCC1)C(C)(C)C` (stereo partly drawn) [Compound P3-47], the IC50 came to 0.022 µM.

Source of the values: patent US20130344026A1, “Dimeric Smac Mimetics” (priority 2009, published 2013).
